Reference: PubChem BioAssay (NCI)
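Protocol summary: plate cells (96-well), add compound at 5 concentrations, incubate 48 h, interpolate endpoints linearly. Abbreviation: GI50, concentration required for 50% inhibition of growth. The concentration for full growth arrest is given as TGI.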

Columns and labels:
Experiment in all cases: NCI anticancer screen, dose series, 48 h
786-0 renal = system: 786-0 renal
A498 renal = system: A498 renal
A549 NSCLC = system: A549 NSCLC
ACHN renal = system: ACHN renal
BT-549 breast = system: BT-549 breast
CAKI-1 renal = system: CAKI-1 renal
CCRF-CEM leukemia = system: CCRF-CEM leukemia
COLO 205 colon = system: COLO 205 colon
DU-145 prostate = system: DU-145 prostate
EKVX NSCLC = system: EKVX NSCLC
HCC-2998 colon = system: HCC-2998 colon
HCT-116 colon = system: HCT-116 colon
HCT-15 colon = system: HCT-15 colon
HL-60(TB) leukemia = system: HL-60(TB) leukemia
HOP-62 NSCLC = system: HOP-62 NSCLC
HOP-92 NSCLC = system: HOP-92 NSCLC
HS 578T breast = system: HS 578T breast
HT29 colon = system: HT29 colon
IGROV1 ovarian = system: IGROV1 ovarian
K-562 leukemia = system: K-562 leukemia
KM12 colon = system: KM12 colon
LOX IMVI melanoma = system: LOX IMVI melanoma
M14 melanoma = system: M14 melanoma
MALME-3M melanoma = system: MALME-3M melanoma
MCF7 breast = system: MCF7 breast
MDA-MB-231 breast = system: MDA-MB-231 breast
MDA-MB-435 = system: MDA-MB-435
MOLT-4 leukemia = system: MOLT-4 leukemia
NCI-H226 lung = system: NCI-H226 lung
NCI-H23 lung = system: NCI-H23 lung
NCI-H460 lung = system: NCI-H460 lung
NCI-H522 lung = system: NCI-H522 lung
NCI/ADR-RES ovarian = system: NCI/ADR-RES ovarian
OVCAR-3 ovarian = system: OVCAR-3 ovarian
OVCAR-4 ovarian = system: OVCAR-4 ovarian
OVCAR-5 ovarian = system: OVCAR-5 ovarian
OVCAR-8 ovarian = system: OVCAR-8 ovarian
PC-3 prostate = system: PC-3 prostate
RPMI-8226 leukemia = system: RPMI-8226 leukemia
RXF 393 renal = system: RXF 393 renal
SF-268 CNS = system: SF-268 CNS
SF-295 CNS = system: SF-295 CNS
SF-539 CNS = system: SF-539 CNS
SK-MEL-2 melanoma = system: SK-MEL-2 melanoma
SK-MEL-28 melanoma = system: SK-MEL-28 melanoma
SK-MEL-5 melanoma = system: SK-MEL-5 melanoma
SK-OV-3 ovarian = system: SK-OV-3 ovarian
SN12C renal = system: SN12C renal
SNB-19 CNS = system: SNB-19 CNS
SNB-75 CNS = system: SNB-75 CNS
SR leukemia = system: SR leukemia
SW-620 colon = system: SW-620 colon
T-47D breast = system: T-47D breast
TK-10 renal = system: TK-10 renal
U251 CNS = system: U251 CNS
UACC-257 melanoma = system: UACC-257 melanoma
UACC-62 melanoma = system: UACC-62 melanoma
UO-31 renal = system: UO-31 renal

In the case of `Cc1c(C(=O)/C=C/c2ccc(Cl)cc2)nnn1-c1ccnc2c(C(F)(F)F)cccc12`, the GI50 (786-0 renal) is reported as 45.6 µM, the TGI (786-0 renal) is reported as over 100 µM and the GI50 (A498 renal) is reported as over 100 µM. The TGI (A498 renal) was over 100 µM, the GI50 (A549 NSCLC) was 23.7 µM and the TGI (A549 NSCLC) was over 100 µM. It also gave a GI50 (ACHN renal) of 51.6 µM, a TGI (ACHN renal) of over 100 µM and a GI50 (BT-549 breast) of over 100 µM. It also gave a TGI (BT-549 breast) of over 100 µM, a GI50 (CAKI-1 renal) of 53.7 µM and a TGI (CAKI-1 renal) of over 100 µM. For the same molecule, the GI50 (CCRF-CEM leukemia) was 15.3 µM, the TGI (CCRF-CEM leukemia) was over 100 µM and the GI50 (COLO 205 colon) was over 100 µM. It also gave a TGI (COLO 205 colon) of over 100 µM, a GI50 (DU-145 prostate) of over 100 µM and a TGI (DU-145 prostate) of over 100 µM. It also gave a GI50 (EKVX NSCLC) of 76.5 µM, a TGI (EKVX NSCLC) of over 100 µM and a GI50 (HCC-2998 colon) of 72.8 µM. It also gave a TGI (HCC-2998 colon) of over 100 µM, a GI50 (HCT-116 colon) of 25.6 µM and a TGI (HCT-116 colon) of over 100 µM. For the same molecule, the GI50 (HCT-15 colon) was 54.6 µM, the TGI (HCT-15 colon) was over 100 µM and the GI50 (HL-60(TB) leukemia) was 25.9 µM. The TGI (HL-60(TB) leukemia) was over 100 µM, the GI50 (HOP-62 NSCLC) was 22 µM and the TGI (HOP-62 NSCLC) was 47.8 µM. The GI50 (HOP-92 NSCLC) was 18.4 µM, the TGI (HOP-92 NSCLC) was 60.6 µM and the GI50 (HS 578T breast) was 64.3 µM. For the same molecule, the TGI (HS 578T breast) was over 100 µM, the GI50 (HT29 colon) was 8.24 µM and the TGI (HT29 colon) was over 100 µM. For the same molecule, the GI50 (IGROV1 ovarian) was 97.3 µM, the TGI (IGROV1 ovarian) was over 100 µM and the GI50 (K-562 leukemia) was 8.67 µM. It also gave a TGI (K-562 leukemia) of over 100 µM, a GI50 (KM12 colon) of 77.1 µM and a TGI (KM12 colon) of over 100 µM. For the same molecule, the GI50 (LOX IMVI melanoma) was 23.3 µM, the TGI (LOX IMVI melanoma) was over 100 µM and the GI50 (M14 melanoma) was over 100 µM. It also gave a TGI (M14 melanoma) of over 100 µM, a GI50 (MALME-3M melanoma) of 26.8 µM and a TGI (MALME-3M melanoma) of over 100 µM. The GI50 (MCF7 breast) was 70.7 µM, the TGI (MCF7 breast) was over 100 µM and the GI50 (MDA-MB-231 breast) was 17.2 µM. For the same molecule, the TGI (MDA-MB-231 breast) was 72.7 µM, the GI50 (MDA-MB-435) was over 100 µM and the TGI (MDA-MB-435) was over 100 µM. For the same molecule, the GI50 (MOLT-4 leukemia) was 19.3 µM, the TGI (MOLT-4 leukemia) was 68.3 µM and the GI50 (NCI-H226 lung) was 22.6 µM. For the same molecule, the TGI (NCI-H226 lung) was over 100 µM, the GI50 (NCI-H23 lung) was 35.8 µM and the TGI (NCI-H23 lung) was over 100 µM. The GI50 (NCI-H460 lung) was 48.9 µM, the TGI (NCI-H460 lung) was over 100 µM and the GI50 (NCI-H522 lung) was 27.6 µM. For the same molecule, the TGI (NCI-H522 lung) was over 100 µM, the GI50 (NCI/ADR-RES ovarian) was 48.4 µM and the TGI (NCI/ADR-RES ovarian) was over 100 µM. For the same molecule, the GI50 (OVCAR-3 ovarian) was 36.6 µM, the TGI (OVCAR-3 ovarian) was over 100 µM and the GI50 (OVCAR-4 ovarian) was 0.151 µM. It also gave a TGI (OVCAR-4 ovarian) of 0.966 µM, a GI50 (OVCAR-5 ovarian) of over 100 µM and a TGI (OVCAR-5 ovarian) of over 100 µM. The GI50 (OVCAR-8 ovarian) was 42.7 µM, the TGI (OVCAR-8 ovarian) was over 100 µM and the GI50 (PC-3 prostate) was 26.1 µM. For the same molecule, the TGI (PC-3 prostate) was over 100 µM, the GI50 (RPMI-8226 leukemia) was 8.47 µM and the TGI (RPMI-8226 leukemia) was over 100 µM. For the same molecule, the GI50 (RXF 393 renal) was 1.05 µM, the TGI (RXF 393 renal) was 34.1 µM and the GI50 (SF-268 CNS) was 21.5 µM. It also gave a TGI (SF-268 CNS) of over 100 µM, a GI50 (SF-295 CNS) of 26.9 µM and a TGI (SF-295 CNS) of over 100 µM. It also gave a GI50 (SF-539 CNS) of 51.9 µM, a TGI (SF-539 CNS) of over 100 µM and a GI50 (SK-MEL-2 melanoma) of over 100 µM. It also gave a TGI (SK-MEL-2 melanoma) of over 100 µM, a GI50 (SK-MEL-28 melanoma) of over 100 µM and a TGI (SK-MEL-28 melanoma) of over 100 µM. It also gave a GI50 (SK-MEL-5 melanoma) of 53.5 µM, a TGI (SK-MEL-5 melanoma) of over 100 µM and a GI50 (SK-OV-3 ovarian) of 42.1 µM. It also gave a TGI (SK-OV-3 ovarian) of 92.9 µM, a GI50 (SN12C renal) of 16.3 µM and a TGI (SN12C renal) of over 100 µM. It also gave a GI50 (SNB-19 CNS) of 33.9 µM, a TGI (SNB-19 CNS) of over 100 µM and a GI50 (SNB-75 CNS) of 15.9 µM. For the same molecule, the TGI (SNB-75 CNS) was 36.5 µM, the GI50 (SR leukemia) was 8.71 µM and the TGI (SR leukemia) was 55.2 µM. The GI50 (SW-620 colon) was over 100 µM, the TGI (SW-620 colon) was over 100 µM and the GI50 (T-47D breast) was over 100 µM. It also gave a TGI (T-47D breast) of over 100 µM, a GI50 (TK-10 renal) of 34.9 µM and a TGI (TK-10 renal) of over 100 µM. It also gave a GI50 (U251 CNS) of 12.9 µM, a TGI (U251 CNS) of 47.8 µM and a GI50 (UACC-257 melanoma) of 30.2 µM. It also gave a TGI (UACC-257 melanoma) of over 100 µM, a GI50 (UACC-62 melanoma) of 26.5 µM and a TGI (UACC-62 melanoma) of over 100 µM. It also gave a GI50 (UO-31 renal) of 33.5 µM and a TGI (UO-31 renal) of over 100 µM.
